Measurements reported in patent US20090264355A1, “METHODS TO TREAT ALZHEIMER'S DISEASE OR OTHER DISORDERS MEDIATED BY AMYLOID-BETA ACCUMULATION IN A SUBJECT” (WASHINGTON UNIVERSITY IN ST. LOUIS, priority 2005, published 2009).

Assays:
Pgp [1] = target: T1, Pgp (Mus musculus, UniProt P21447); assay: ISF Aβ in vivo microdialysis after acute pharmacologic inhibition of Pgp; parameters: species or system APPsw mice; conditions: 80 mg/kg intravenous
T1 construct: from tissue; host or cells: brain (blood-brain barrier) of living 3 month old APPsw+/- (Tg2576) mice
T1 sequence (P21447 whole entry): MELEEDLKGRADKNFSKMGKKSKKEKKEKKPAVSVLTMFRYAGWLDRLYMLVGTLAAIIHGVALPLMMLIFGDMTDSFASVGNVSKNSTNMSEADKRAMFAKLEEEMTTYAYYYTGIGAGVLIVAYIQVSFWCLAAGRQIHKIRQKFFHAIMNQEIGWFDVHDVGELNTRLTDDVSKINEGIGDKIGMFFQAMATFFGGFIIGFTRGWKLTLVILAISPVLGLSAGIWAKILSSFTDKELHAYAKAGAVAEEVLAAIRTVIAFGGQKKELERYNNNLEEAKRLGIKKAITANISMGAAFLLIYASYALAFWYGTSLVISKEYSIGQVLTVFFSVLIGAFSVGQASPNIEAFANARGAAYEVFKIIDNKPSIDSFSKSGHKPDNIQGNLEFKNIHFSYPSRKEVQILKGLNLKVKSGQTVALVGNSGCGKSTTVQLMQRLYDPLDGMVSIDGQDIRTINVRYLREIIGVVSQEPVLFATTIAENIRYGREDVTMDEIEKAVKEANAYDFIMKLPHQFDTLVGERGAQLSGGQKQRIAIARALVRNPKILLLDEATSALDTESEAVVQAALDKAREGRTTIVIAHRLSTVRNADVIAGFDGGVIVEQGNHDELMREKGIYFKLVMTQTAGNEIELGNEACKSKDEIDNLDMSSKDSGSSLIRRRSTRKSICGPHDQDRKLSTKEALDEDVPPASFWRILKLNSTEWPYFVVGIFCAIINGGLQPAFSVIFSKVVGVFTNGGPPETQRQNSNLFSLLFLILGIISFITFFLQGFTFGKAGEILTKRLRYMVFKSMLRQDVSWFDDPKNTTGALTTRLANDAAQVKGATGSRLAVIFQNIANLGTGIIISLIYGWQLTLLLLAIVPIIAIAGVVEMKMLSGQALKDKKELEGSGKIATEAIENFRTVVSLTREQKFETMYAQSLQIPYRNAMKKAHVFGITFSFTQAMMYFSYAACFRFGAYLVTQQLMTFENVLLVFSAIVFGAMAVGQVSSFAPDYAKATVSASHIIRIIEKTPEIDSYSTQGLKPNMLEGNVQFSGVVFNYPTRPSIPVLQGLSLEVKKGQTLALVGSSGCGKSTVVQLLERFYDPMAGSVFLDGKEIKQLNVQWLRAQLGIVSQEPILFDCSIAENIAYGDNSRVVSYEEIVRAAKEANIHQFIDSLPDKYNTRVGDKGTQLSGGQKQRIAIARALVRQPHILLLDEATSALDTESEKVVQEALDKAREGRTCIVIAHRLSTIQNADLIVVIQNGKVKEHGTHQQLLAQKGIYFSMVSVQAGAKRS
Experimental: In vivo microdialysis to assess brain ISF Aβ1-x in the hippocampus of awake, freely moving 3 month old APPsw^+/− mice was performed exactly as described (Cirrito, J. R., et al. 2003. J. Neurosci. 23:8844-8853; DeMattos, R. B., et al. 2004. Neuron. 41:193-202). Aβ1-x represents all Aβ peptides beginning at amino acid 1 of the N-terminus with the C-terminus being variable but predominantly either ending at position 40 or 42. An initial 4-6 hour recovery period elapsed after guide implantation and probe insertion to allow for tissue recovery, followed by collection of microdialysis samples for 5 hours at one-hour intervals at a flow rate of 1.5 μl/min to establish basal level of ISF Aβ. […] Concentrations of ISF Aβ1-x for each mouse were expressed as the percentage of basal level for each mouse (mean of 5 hours prior to treatment).
Acute inhibition of Pgp activity was assessed using APPsw mice (also called Tg2576). […] Using in vivo microdialysis in awake, freely moving mice (Cirrito, J. R., et al. 2003. J. Neurosci. 23:8844-8853; DeMattos, R. B., et al. 2004. Neuron. 41:193-202), a basal concentration of ISF Aβ was determined over 5 hours. Mice were then treated with either vehicle or XR9576 and ISF Aβ levels were assessed for an additional 10 hours (FIG. 2A). […]

LRP1 = LRP1 expression in cerebral capillaries by Western blot after acute inhibition of Pgp; type: in vivo, APPsw mice; conditions: ten hours after treatment, 80 mg/kg intravenous
Experimental: Hippocampal tissue from 12 month old APPsw, Pgp-wild type and APPsw, Pgp-null littermates was homogenized in 150 mM NaCl, 50 mM Tris pH 7.4, 0.5% deoxycholic acid, 0.1% SDS, 1% Triton X-100, 2.5 mM EDTA, and protease inhibitors. Western blotting for MRP1, LRP1, and RAGE were performed using 3-8% NuPAGE Tris-Acetate gels (Invitrogen) with thirty micrograms of protein loaded per lane. Cerebral microvessels from 2-3 month old PGP-wildtype (FVB wild type) and Pgp-null mice were isolated as described (Zlokovic, B. V., et al. 1993. J. Biol. Chem. 268:8019-8025.). […] Bands were detected with Lumigen-TMA6 (Amersham Biosciences) and captured digitally using the Kodak ImageStation 440CF. The relative absorbance of each band was detected by densitometry and normalized to protein loaded in each lane. […]
Acute inhibition of Pgp activity was assessed using APPsw mice (also called Tg2576). […] Using in vivo microdialysis in awake, freely moving mice (Cirrito, J. R., et al. 2003. J. Neurosci. 23:8844-8853; DeMattos, R. B., et al. 2004. Neuron. 41:193-202), a basal concentration of ISF Aβ was determined over 5 hours. Mice were then treated with either vehicle or XR9576 and ISF Aβ levels were assessed for an additional 10 hours (FIG. 2A). […] Ten hours after treatment with either vehicle or XR9576, cerebral microvessels were also isolated and assessed for levels of LRP1 by Western blot.

Pgp [2] = assay: [99mTc]Sestamibi transport and biodistribution; type: in vivo, mice; conditions: for brain content of the tracer: five minutes after intravenous bolus injection (2 μCi)
Experimental: The radiopharmaceutical [^99mTc]Sestamibi (Bristol-Myers Squibb Co.) was prepared from a one-step commercial kit formulation by addition of [^99mTc]TcO4^− according to the manufacturer's recommendations (25). […] Data are expressed as percent injected dose per gram tissue [(μCi [^99mTc]Sestamibi in tissue) (μCi injected [^99mTc]Sestamibi)^−1(g tissue)^−1×100] and are reported as mean±SEM (n=3-4) or ±range (n=2).
APPsw^+/− mice were bred to mdr1a/b^−/− animals to produce littermate mice that were positive for the APPsw transgene and either Pgp-null (APPsw^+/−, mdr1a/b^−/−) or Pgp wild type (APPsw^+/−, mdr1a/b^+/+). […] Normally, [^99mTc]Sestamibi is readily transported out of the brain by Pgp.

Pgp [3] = assay: BBB transport: clearance of radiotracers from the brain after intracerebral microinjection; conditions: both groups (Pgp-wild type and Pgp-null); 30 minutes; co-injected with [125I]Aβ42
Experimental: Transport of human [^125I]Aβ40 or [^125I]Aβ42 across the BBB and the associated calculations were performed as described (DeMattos, R. B., et al. 2002. Science. 295:2264-2267; Zlokovic, B. V., et al. 2000. Nat. Med. 6:718-719.). Briefly, a guide cannula was implanted stereotaxically into the right caudate-putamen of anesthetized mice at coordinates 0.9 mm anterior to bregma, 1.9 mm lateral, and 2.9 mm below the dura. Animals were allowed to recover after surgery prior to radiotracer studies. […] Twelve nanomoles of [^14C]inulin and either [^125I]Aβ40 or [^125I]Aβ42 was co-injected in a volume of 0.5 μl over 5 minutes using an ultra micropump (World Precision Instruments). The specific activities of peptide were in the range of 80-120 μCi/μg. The percentage of radioactivity remaining in the brain after microinjection was determined as % recovery in brain=100×(Nb/Ni), where Nb is the radioactivity remaining in the brain at the end of the experiment and Ni is the radioactivity microinjected into brain ISF, i.e., the disintegrations per minute for [^14C]inulin and the counts per minute for tricholoracetic acid-precipitable [^125I]radioactivity (intact Aβ). The percentage of Aβ cleared through the BBB was calculated as [(1−Nb(Aβ)/Ni(Aβ))−(1−Nb(inulin)/Ni(inulin))]×100, using a standard time of 30 min. […]

Molecule: COc1cc2c(cc1OC)CN(CCc1ccc(NC(=O)c3cc(OC)c(OC)cc3NC(=O)c3cnc4ccccc4c3)cc1)CC2 [XR9576]
- increase of ISF Aβ levels compared to vehicle treated mice (Pgp [1]; eight hours after treatment): ~30%
- ISF exchangeable Aβ1-x (eAβ1-x) levels, % of control-treated (vehicle-treated) mice (Pgp [1]; from eight hours after administration, hippocampus, 3 month old APPsw mice): 127.7±3.4%
- levels of LRP1 in cerebral vessels (LRP1): did not change
- Pgp function at the BBB as determined with [99mTc]Sestamibi analysis (Pgp [2]; intravenous, 80 mg/kg, data not shown): inhibits Pgp function at the BBB

Molecule: [C-]#[N+]CC(C)(C)OC.[C-]#[N+]CC(C)(C)OC.[C-]#[N+]CC(C)(C)OC.[C-]#[N+]CC(C)(C)OC.[C-]#[N+]CC(C)(C)OC.[C-]#[N+]CC(C)(C)OC.[Tc] [[^99mTc]Sestamibi]
- increase in brain penetration in Pgp-null mice versus wild type (Pgp [2]; FVB strain, without APPsw transgene): approximately 3.5 fold
- brain content of the tracer (Pgp [2]; Pgp-null mice (FVB)): 0.85±0.14 % ID/g
- increase in brain penetration in Pgp-null animals compared with those expressing Pgp (Pgp [2]; animals expressing the APPsw+/- transgene): 3.5 fold
- brain content of the tracer (Pgp [2]; wild type controls (FVB)): 0.22±0.02 % injected dose (ID)/gram (g)
- blood content of the tracer, difference between the two strains (Pgp [2]; wild type versus Pgp-null, five minutes post-injection): no difference

Molecule: inulin [[^14C]inulin]
- brain recovery (retained) (Pgp [3]): Approximately 85%
